pIC50: −log10 of the molar value. In brackets after ≈: the same amount, converted by molar mass.
Assays:
CYP3A4 = CYP3A4 (Homo sapiens, UniProt P08684); assay: CYP inhibition assay in pooled human liver microsomes (CYP3A4, midazolam); type: in vitro ADME; conditions: pH 7.4, probe midazolam (3 µM), 37 °C, read-out: CYP 3A4 half maximal inhibitory concentration (IC50)
CDK4/CyclinD1 = molecular target: T1, CDK4/CyclinD1 (Homo sapiens, UniProt P11802); assay: Kinase activity assay, mobility shift assay (CDK4/CyclinD1); type: biochemical; conditions: Table 18; read-out: CDK4/D1 IC50
T1 construct: purchased ProQinase 0142-0143-1
T1 sequence (P11802 whole entry): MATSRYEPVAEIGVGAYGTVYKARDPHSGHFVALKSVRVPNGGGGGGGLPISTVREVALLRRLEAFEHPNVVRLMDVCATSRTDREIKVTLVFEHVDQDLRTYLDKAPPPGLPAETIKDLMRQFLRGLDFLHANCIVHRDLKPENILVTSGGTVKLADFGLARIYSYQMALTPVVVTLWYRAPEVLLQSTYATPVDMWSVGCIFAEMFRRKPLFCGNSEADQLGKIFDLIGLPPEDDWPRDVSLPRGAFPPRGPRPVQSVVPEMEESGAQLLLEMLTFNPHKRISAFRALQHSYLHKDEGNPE
T1 sequence (P24385 whole entry partner): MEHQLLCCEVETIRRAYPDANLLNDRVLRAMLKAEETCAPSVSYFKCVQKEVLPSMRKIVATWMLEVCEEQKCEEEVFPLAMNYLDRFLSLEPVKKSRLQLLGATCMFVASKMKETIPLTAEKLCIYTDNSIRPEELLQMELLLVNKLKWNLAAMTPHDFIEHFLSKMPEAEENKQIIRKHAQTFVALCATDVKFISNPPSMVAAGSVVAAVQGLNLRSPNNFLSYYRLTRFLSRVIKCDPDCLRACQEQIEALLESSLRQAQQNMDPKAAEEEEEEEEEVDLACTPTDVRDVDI
Experimental: (§1) In vitro CDK kinase activity was tested using a mobility shift assay. […] A proper amount of kinase was added to the 1× kinase buffer to prepare a 2.5× enzyme solution. 5× compound dilutions (1× kinase buffer, 10% DMSO) corresponding to the test concentrations of the compounds were prepared. […] 5 µL of 5× compound dilution and 10 µL of 2.5× enzyme solution were added to reaction wells of a 384-well reaction plate. After thorough mixing, the plate was incubated at room temperature for 10 min. […] The reaction plate was incubated at 28 °C for 60 min (biochemical incubator model: SPX-100B-Z). 30 µL of stop solution was added to the 384-well reaction plate to stop the reactions, and the plate was centrifuged at 1000 rpm for 1 min.
(§2) IC50 values for the compounds were obtained by fitting using XLFit excel add-in version 5.4.0.8. Fitting formula: Y = Bottom + (Top−Bottom)/(1+((IC50/X))^(∧)HillSlope). [formula]

CDK6/CyclinD3 = molecular target: T2, CDK6/CyclinD3 (Homo sapiens, UniProt Q00534); assay: Kinase activity assay, mobility shift assay (CDK6/CyclinD3); type: biochemical; conditions: Table 18; read-out: CDK6/D3 IC50
T2 construct: purchased Carna 04-107
T2 sequence (Q00534 whole entry): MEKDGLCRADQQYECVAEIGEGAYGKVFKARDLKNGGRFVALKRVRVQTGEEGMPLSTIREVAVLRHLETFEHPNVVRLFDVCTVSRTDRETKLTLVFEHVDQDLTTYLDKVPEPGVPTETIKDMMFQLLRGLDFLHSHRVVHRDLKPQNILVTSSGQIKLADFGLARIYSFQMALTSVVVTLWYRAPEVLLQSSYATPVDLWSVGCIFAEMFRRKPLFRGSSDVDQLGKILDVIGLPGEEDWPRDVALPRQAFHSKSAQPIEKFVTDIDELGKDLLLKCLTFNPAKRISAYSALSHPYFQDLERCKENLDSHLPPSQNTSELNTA
T2 sequence (P30281 whole entry partner): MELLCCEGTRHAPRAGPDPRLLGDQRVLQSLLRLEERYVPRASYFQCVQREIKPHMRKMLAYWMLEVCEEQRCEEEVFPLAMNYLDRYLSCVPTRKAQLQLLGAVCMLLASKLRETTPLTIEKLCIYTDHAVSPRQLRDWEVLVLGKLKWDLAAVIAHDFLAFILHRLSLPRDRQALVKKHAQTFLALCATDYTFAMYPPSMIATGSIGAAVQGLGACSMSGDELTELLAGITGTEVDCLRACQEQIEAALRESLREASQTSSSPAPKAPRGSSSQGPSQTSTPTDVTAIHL
Experimental: as §1, §2

[1] = Thermodynamic solubility testing in pH 7.4 phosphate buffer; type: physicochemical; conditions: sodium phosphate buffer, aqueous buffer, thermodynamic from solid, 25 °C
Experimental: The thermodynamic solubility of the compounds in a pH 7.4 phosphate buffer was determined. Both the sample supernatant and the standard of a known concentration were tested by LC/MS/MS.
15.6 g of NaH2PO4·2H2O was weighed out, placed into a 1 L glass flask, and dissolved in 1 L of deionized water. The pH of the solution was approximately 4.7, and then the pH was adjusted to 7.4 with 10 M NaOH.
1 mg of each compound powder was accurately weighed out and placed in a glass tube. The pH 7.4 sodium phosphate buffer was added to the glass tube, with 1 mL of the buffer added for each milligram of the compound powder. A stirring bar was added to each glass tube, and the glass tube was closed with a cap. […] The observations in each glass tube were recorded. […] The recorded observations and dilution factors
1 mg of each compound powder was accurately weighed out and added to a glass tube, and DMSO was added to each glass tube, with 1 mL of DMSO added for each milligram of the compound powder. […] Samples were analyzed by LC/MS/MS. […]
All calculations were performed using Microsoft Excel. Samples were analyzed by LC/MS/MS and quantified based on the standard of a known concentration. The solubility of the test compounds was calculated using the following formula: [Sample] = Area Ratio sample × DF sample × [STD] / Area Ratio STD DF: dilution factor. […]

CDK9/CyclinT1 = molecular target: T3, CDK9/CyclinT1 (Homo sapiens, UniProt P50750); assay: Kinase activity assay, ADP-Glo (CDK9/CyclinT1); type: biochemical; conditions: Table 18; read-out: CDK9/T1 IC50
T3 construct: purchased Wuxi Biortus BP480/792/691
T3 sequence (P50750 whole entry, species assumed): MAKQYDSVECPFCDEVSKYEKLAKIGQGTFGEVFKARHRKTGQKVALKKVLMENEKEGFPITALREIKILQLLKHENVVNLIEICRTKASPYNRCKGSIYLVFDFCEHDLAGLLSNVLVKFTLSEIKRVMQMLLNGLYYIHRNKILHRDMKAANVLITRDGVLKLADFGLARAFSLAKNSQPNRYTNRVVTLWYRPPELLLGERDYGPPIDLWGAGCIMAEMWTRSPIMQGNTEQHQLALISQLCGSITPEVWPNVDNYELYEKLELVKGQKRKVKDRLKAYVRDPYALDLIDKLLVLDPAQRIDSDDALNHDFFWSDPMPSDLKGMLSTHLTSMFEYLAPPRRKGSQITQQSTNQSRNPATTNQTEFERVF
T3 sequence (O60563 whole entry partner, species assumed): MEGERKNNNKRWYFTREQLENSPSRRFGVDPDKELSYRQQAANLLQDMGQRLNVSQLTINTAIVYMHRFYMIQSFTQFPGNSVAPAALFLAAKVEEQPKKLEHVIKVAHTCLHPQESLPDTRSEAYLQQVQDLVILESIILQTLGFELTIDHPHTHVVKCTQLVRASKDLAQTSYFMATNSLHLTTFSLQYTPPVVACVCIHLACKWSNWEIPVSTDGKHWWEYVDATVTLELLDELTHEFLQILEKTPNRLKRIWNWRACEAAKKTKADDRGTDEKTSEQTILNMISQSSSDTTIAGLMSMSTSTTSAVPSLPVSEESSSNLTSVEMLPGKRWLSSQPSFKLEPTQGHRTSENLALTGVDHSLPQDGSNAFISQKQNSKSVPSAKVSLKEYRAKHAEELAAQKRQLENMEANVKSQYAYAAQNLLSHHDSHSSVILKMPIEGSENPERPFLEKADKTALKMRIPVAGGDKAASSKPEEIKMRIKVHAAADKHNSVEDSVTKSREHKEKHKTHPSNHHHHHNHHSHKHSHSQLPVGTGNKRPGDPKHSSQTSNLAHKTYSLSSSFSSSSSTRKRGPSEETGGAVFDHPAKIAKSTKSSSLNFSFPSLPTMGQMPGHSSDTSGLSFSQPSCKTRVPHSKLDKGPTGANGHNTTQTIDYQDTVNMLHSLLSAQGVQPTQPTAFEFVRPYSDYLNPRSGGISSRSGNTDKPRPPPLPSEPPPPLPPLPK
Experimental: The starting concentration for the in vitro CDK (CDK2 and CDK9) kinase activity assay was 1 µM and was 3-fold diluted to a total of 10 concentrations, and each concentration was tested in duplicate. The compound PHA-793887 was used as a control compound.
A 1× kinase reaction buffer (40 mM Tris-HCl, pH 7.4, 20 mM […], 0.1 mg/mL BSA, 50 µM DTT), 1 volume of 5× kinase reaction buffer, and 4 volumes of water were prepared, and DTT (final concentration: 50 µM) was added. 50 nL of diluted compound working solution (final concentration of DMSO: 1%) was transferred to each well of a reaction plate (784075, Greiner) using Echo655. The reaction plate was sealed with a plate sealing film and centrifuged at 1000 g for 1 min. 2× enzyme (0.3 ng/µL CDK2/CyclinE1 or CDK9/CyclinT1) was prepared using the 1× kinase reaction buffer. 2.5 µL of the above kinase solution was added to each well. The reaction plate was sealed with a plate sealing film, centrifuged at 1000 g for 1 min, and left to stand at room temperature for 10 min. A mixture of 2× kinase substrate and ATP was prepared using the 1× kinase reaction buffer. 2× CDK2/CylinE1 kinase substrate was 0.4 mg/mL Histone H1 and 30 µM ATP. 2.5 µL of the mixture of 2× Histone H1 and ATP was added to the reaction plate. The plate was centrifuged at 1000 g for 30 s, and the reaction was started. […] The luminescence signals were obtained using Envision 2104. […]

Chain of CYP3A4 (P08684 2-503): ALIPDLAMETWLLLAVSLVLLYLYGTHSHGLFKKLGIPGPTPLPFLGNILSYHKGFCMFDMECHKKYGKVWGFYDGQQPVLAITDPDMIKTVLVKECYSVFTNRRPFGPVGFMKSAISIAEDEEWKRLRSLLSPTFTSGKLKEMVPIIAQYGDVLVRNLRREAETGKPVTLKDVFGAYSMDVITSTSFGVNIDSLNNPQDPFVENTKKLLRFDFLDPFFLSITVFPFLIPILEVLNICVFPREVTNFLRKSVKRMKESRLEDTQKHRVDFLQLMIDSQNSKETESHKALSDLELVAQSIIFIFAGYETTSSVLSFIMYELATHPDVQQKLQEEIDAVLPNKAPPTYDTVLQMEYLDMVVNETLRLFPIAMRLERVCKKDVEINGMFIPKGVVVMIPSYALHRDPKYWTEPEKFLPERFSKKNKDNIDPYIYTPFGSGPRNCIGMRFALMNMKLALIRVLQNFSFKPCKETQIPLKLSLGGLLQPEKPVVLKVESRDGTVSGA

Structure (SMILES) | IC50 at 5 min (CYP3A4) [nM] | pIC50 (CDK4/CyclinD1) | pIC50 (CDK6/CyclinD3) | solubility at 24 h [1] [µM] | pIC50 (CDK9/CyclinT1)
C[C@H]1COc2c(-c3nc(N[C@@H]4CCOC[C@H]4O)ncc3Cl)cc(F)c3nc(C(C)(C)O)n1c23 (single isomer, unassigned) [Isomer 1 with a retention time of 2.078 min] | > 30000 | 8.09 | 6.98 | 2200 (≈ 1050 µg/mL) | < 6.00
C[C@@H]1COc2c(-c3nc(N[C@@H]4CCOC[C@H]4O)ncc3Cl)cc(F)c3nc(C(C)(C)O)n1c23 (single isomer, unassigned) [Isomer 2 with a retention time of 1.887 min] | > 30000 | 7.85 | 6.64 | 2130 (≈ 1020 µg/mL) | < 6.00
